Source: patent publication US12679822B2, “Alkenyl pyrimidine compound, preparation method therefor, and application thereof” (Hongyun Biotech Co., Ltd., priority 2020, dated 2026)

What was measured:
Format in all cases: cell-based
[1] = target: BaF3 cell lines stably transfected with kinase EGFR L858R (Homo sapiens, UniProt P00533, L858R, cells depend on it); experiment: Growth inhibition of BaF3 cell line stably transfected with kinase EGFR L858R (MTS); settings: 48 h, read-out: growth inhibitory activity IC50, L858R
Experimental: (§1) Biological Activity Assay: Growth Inhibitory Activity of Compounds on Cell Lines Stably Transfected with Kinase
(§2) The activity of compounds against various mutants of kinase EGFR was evaluated by their effect of inhibiting growth of BaF3 cell lines stably transfected with kinase. The specific test method was given as follows:
(§3) 1) Culture medium: DMEM (Dulbecco's modified eagle medium) or RPMI 1640 (containing 10% fetal bovine serum, 100 μg/mL ampicillin, 100 μg/mL streptomycin).
(§4) 2) Reagent: MTS reaction solution (containing 2 mg/mL of MTS [3-(4,5-di methylthiazol-2-yl)-5-(3-carboxymethoxyphenyl)-2-(4-sulfophenyl)-2H-tetrazolium, inner Salt]; 100 μg/mL of PES (phenazine […])).
(§5) 3) Compound test: cells were incubated into a 96-well culture plate, the volume of cytosol was 90 μL, and then 10 μL of the compound at each gradient concentration was added. That is, the highest concentration was 10 μM, which was diluted stepwise by ⅓, and 8 concentration points were set in total; 0.1% DMSO (dimethyl sulfoxide) was contained in the system. The cell plate with uniformly mixed compound was cultured in a cell culture incubator (37° C.; 5% […]) for 48 h, then 20 μL of MTS reaction solution was added, uniformly mixed and incubated in the cell culture incubator (37° C.; 5% CO2) for 1-4 h; OD values at 490 nm were measured by a microplate reader (VARIOSKAN FLASH, Thermo). Two parallels were set in each group of experiments, with 0.1% (a final concentration) DMSO as a negative control, and a culture medium without cells and compounds as a blank control. The cell growth inhibition rate was calculated by the following formula: Cell growth inhibition rate %=1−(ODexperimental group−ODblank group)/(ODnegative group−ODblank group)×100%.
(§6) 4) IC50 calculation: The semi-inhibitory concentration of the compounds acting on cells was calculated using GradPad Prism 5 software according to the measured cell growth inhibition rate.

[2] = target: BaF3 cell lines stably transfected with kinase EGFR Del (Homo sapiens, UniProt P00533, cells depend on it, form not given); experiment: Growth inhibition of BaF3 cell line stably transfected with kinase EGFR Del (MTS); settings: 48 h, read-out: growth inhibitory activity IC50, Del
Experimental: as §1, §2, §3, §4, §5, §6

[3] = target: BaF3 cell lines stably transfected with kinase EGFR L858R/T790M/C797S (Homo sapiens, UniProt P00533, T790M/C797S/L858R, cells depend on it); experiment: Growth inhibition of BaF3 cell line stably transfected with kinase EGFR L858R/T790M/C797S (MTS); settings: 48 h, read-out: growth inhibitory activity IC50, L858R/T790M/C797S
Experimental: as §1, §2, §3, §4, §5, §6

[4] = target: BaF3 cell lines stably transfected with kinase EGFR Del/T790M/C797S (Homo sapiens, UniProt P00533, T790M/C797S, cells depend on it, form not given); experiment: Growth inhibition of BaF3 cell line stably transfected with kinase EGFR Del/T790M/C797S (MTS); settings: 48 h, read-out: growth inhibitory activity IC50, Del/T790M/C797S
Experimental: as §1, §2, §3, §4, §5, §6

[5] = target: BaF3 cell lines stably transfected with kinase EGFR Del/T790M (Homo sapiens, UniProt P00533, T790M, cells depend on it, form not given); experiment: Growth inhibition of BaF3 cell line stably transfected with kinase EGFR Del/T790M (MTS); settings: 48 h, read-out: growth inhibitory activity IC50, Del/T790M
Experimental: as §1, §2, §3, §4, §5, §6

[6] = target: BaF3 cell lines stably transfected with kinase EGFR L858R/T790M (Homo sapiens, UniProt P00533, T790M/L858R, cells depend on it); experiment: Growth inhibition of BaF3 cell line stably transfected with kinase EGFR L858R/T790M (MTS); settings: 48 h, read-out: growth inhibitory activity IC50, L858R/T790M
Experimental: as §1, §2, §3, §4, §5, §6

Sequence of BaF3 cell lines stably transfected with kinase EGFR Del/T790M/C797S (P00533 with tags, fused parts or gaps DEL746-750/T790M/C797S, form open): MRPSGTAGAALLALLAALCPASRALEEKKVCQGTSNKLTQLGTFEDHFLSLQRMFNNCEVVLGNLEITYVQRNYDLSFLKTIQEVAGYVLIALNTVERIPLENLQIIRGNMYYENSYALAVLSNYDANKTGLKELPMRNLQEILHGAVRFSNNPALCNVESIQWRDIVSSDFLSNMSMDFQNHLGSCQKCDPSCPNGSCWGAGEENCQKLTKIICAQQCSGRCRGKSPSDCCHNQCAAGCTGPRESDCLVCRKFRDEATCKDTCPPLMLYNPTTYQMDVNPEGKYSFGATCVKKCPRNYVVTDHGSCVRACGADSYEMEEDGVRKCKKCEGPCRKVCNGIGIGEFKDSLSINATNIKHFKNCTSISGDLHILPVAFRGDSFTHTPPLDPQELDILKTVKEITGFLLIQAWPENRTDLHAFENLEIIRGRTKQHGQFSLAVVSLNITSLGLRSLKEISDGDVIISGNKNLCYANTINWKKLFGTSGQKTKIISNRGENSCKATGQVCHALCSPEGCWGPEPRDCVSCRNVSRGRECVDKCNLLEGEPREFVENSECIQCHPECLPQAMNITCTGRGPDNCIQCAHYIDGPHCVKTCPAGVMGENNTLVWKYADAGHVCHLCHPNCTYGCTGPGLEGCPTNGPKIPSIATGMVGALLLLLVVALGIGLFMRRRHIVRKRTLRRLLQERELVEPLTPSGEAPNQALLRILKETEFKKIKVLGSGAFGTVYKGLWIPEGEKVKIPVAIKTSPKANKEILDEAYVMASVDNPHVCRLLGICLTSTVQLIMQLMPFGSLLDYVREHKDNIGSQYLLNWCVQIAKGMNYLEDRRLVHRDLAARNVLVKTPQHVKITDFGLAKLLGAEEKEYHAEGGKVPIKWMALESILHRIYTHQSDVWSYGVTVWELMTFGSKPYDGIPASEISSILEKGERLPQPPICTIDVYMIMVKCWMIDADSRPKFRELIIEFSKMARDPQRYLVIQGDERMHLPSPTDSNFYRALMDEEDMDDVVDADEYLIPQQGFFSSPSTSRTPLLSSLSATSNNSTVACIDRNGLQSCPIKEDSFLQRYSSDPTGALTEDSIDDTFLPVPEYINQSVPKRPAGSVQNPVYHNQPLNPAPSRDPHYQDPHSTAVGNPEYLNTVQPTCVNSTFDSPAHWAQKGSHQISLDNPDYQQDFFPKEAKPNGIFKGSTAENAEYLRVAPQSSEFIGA
Sequence of BaF3 cell lines stably transfected with kinase EGFR L858R/T790M/C797S (P00533 whole entry T790M/C797S/L858R): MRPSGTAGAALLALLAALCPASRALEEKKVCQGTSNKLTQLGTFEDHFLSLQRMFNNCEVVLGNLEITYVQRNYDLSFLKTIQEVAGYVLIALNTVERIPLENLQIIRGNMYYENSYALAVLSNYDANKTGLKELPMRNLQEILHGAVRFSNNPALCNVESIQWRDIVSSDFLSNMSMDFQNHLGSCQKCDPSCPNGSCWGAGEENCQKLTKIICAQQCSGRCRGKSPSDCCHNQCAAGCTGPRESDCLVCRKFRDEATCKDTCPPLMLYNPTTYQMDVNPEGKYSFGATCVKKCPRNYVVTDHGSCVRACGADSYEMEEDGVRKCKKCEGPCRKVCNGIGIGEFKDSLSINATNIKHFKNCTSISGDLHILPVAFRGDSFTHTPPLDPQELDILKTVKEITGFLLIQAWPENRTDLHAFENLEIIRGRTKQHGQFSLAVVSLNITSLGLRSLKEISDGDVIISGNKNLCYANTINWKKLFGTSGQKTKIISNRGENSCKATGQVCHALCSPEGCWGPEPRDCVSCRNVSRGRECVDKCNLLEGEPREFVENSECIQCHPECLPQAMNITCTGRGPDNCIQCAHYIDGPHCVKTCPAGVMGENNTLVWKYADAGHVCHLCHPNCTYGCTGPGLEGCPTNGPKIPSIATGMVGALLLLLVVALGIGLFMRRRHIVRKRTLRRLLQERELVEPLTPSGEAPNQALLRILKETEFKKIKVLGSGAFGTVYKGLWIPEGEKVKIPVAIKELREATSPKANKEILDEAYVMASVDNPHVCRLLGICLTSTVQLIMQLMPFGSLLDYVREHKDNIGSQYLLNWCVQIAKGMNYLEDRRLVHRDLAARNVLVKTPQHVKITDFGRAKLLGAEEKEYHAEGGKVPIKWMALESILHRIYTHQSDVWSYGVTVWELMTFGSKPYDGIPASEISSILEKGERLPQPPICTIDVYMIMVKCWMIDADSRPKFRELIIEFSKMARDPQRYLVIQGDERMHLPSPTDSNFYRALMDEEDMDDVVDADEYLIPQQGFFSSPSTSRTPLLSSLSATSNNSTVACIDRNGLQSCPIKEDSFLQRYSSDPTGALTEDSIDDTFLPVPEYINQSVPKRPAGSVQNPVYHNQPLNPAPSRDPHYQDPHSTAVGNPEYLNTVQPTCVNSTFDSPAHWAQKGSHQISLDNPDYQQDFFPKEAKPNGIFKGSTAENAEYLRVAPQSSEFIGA
Sequence of BaF3 cell lines stably transfected with kinase EGFR Del/T790M (P00533 with tags, fused parts or gaps DEL746-750/T790M, form open): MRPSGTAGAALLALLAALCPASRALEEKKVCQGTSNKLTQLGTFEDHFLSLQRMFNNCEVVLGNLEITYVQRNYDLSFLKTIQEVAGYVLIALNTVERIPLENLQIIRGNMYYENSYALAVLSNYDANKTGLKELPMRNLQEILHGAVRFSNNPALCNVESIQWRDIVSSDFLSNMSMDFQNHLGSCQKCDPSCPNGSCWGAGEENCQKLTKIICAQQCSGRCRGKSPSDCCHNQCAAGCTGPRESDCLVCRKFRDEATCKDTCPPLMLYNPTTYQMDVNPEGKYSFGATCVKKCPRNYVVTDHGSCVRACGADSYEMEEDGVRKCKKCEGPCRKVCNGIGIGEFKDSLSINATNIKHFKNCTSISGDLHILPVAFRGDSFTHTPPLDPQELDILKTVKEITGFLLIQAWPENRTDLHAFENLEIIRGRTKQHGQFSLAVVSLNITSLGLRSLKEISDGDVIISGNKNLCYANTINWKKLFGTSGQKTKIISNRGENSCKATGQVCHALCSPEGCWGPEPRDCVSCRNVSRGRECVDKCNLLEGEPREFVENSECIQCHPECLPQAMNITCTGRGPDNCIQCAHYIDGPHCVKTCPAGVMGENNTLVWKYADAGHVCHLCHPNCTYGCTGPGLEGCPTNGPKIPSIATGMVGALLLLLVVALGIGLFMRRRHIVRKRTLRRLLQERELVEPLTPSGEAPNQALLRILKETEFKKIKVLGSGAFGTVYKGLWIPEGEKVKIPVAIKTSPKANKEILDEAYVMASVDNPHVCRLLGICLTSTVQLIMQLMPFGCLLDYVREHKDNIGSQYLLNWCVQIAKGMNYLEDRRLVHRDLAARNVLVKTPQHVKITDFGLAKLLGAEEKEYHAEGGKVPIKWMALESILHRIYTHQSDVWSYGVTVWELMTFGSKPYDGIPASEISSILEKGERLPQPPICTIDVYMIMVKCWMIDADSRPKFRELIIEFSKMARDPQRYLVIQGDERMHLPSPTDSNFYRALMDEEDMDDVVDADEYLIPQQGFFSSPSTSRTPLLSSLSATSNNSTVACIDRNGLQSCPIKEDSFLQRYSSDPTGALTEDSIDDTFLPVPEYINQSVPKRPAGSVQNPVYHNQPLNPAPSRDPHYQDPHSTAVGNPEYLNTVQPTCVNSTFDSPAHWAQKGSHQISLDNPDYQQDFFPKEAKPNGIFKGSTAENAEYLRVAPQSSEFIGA
Sequence of BaF3 cell lines stably transfected with kinase EGFR Del (P00533 with tags, fused parts or gaps DEL746-750): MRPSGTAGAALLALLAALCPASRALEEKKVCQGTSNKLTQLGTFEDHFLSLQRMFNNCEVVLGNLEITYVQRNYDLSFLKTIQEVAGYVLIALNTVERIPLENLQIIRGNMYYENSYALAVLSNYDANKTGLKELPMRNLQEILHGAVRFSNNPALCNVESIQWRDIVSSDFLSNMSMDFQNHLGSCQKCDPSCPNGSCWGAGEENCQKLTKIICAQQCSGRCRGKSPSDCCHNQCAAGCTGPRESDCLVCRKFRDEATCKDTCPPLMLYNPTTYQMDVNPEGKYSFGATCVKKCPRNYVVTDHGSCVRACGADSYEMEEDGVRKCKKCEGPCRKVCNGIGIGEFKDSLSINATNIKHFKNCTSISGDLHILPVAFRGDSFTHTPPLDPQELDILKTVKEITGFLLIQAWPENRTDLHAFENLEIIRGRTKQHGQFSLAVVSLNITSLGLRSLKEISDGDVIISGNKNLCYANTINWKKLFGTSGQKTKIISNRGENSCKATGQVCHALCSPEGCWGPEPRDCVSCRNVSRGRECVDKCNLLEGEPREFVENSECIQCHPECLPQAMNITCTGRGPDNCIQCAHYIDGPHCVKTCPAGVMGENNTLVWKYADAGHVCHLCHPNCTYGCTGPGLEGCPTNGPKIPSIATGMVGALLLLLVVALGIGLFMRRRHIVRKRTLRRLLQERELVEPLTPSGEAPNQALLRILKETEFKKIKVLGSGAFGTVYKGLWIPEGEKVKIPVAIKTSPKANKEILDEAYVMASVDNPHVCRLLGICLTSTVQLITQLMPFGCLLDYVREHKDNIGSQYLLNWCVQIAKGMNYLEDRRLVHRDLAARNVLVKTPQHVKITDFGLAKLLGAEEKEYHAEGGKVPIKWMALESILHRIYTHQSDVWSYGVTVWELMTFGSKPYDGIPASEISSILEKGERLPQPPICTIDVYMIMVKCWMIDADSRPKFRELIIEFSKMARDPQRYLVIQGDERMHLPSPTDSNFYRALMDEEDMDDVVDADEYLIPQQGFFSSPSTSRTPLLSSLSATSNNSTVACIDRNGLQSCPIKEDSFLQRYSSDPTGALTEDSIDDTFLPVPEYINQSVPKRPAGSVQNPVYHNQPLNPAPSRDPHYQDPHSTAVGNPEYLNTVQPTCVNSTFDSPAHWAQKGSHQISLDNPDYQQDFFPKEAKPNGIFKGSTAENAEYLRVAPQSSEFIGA

SMILES	GI50 [1]	GI50 [2]	GI50 [3]	GI50 [4]	GI50 [5]	GI50 [6]
C=C(C)c1cnc(Nc2cc(C)c(N3CCC(N4CCN(C)CC4)CC3)nc2OC)nc1Nc1ccc2nccnc2c1P(C)(C)=O [Compound I-20]	50 to 500 nM	500 to 2500 nM	500 to 2500 nM	500 to 2500 nM	50 to 500 nM	50 to 500 nM
C=Cc1cnc(Nc2cc(C3CC3)c(N3CCC(N4CCN(C)CC4)CC3)cc2OC)nc1Nc1ccc2nccnc2c1S(C)(=O)=O [III-12]	500 to 2500 nM	50 to 500 nM	50 to 500 nM	500 to 2500 nM	50 to 500 nM	50 to 500 nM
C=Cc1cnc(Nc2cc3c(cc2F)CCN(C)C3)nc1Nc1ccc2nccnc2c1P(C)(C)=O [Compound I-23]	50 to 500 nM	50 to 500 nM	50 to 500 nM	500 to 2500 nM	50 to 500 nM	50 to 500 nM
C=Cc1cnc(Nc2cc(C(C)C)c(N3CCC(N4CCN(C)CC4)CC3)cc2OC)nc1Nc1ccc2nccnc2c1S(=O)(=O)NC [IV-6]	500 to 2500 nM	500 to 2500 nM	500 to 2500 nM	500 to 2500 nM	50 to 500 nM	50 to 500 nM
CCc1cc(Nc2ncc(/C=C/c3ccccc3)c(Nc3ccc4nccnc4c3P(C)(C)=O)n2)c(OC)cc1N1CCC(N2CCN(C)CC2)CC1 [Compound I-14]	≤ 50 nM	50 to 500 nM	50 to 500 nM	50 to 500 nM	50 to 500 nM	500 to 2500 nM
C=Cc1cnc(Nc2ccc(N3CCC(N4CCN(C)CC4)CC3)c(CC)c2)nc1Nc1ccc2nccnc2c1NS(C)(=O)=O [II-38]	≤ 50 nM	≤ 50 nM	≤ 50 nM	50 to 500 nM	≤ 50 nM	≤ 50 nM
C=Cc1cnc(Nc2cc(F)c(N3CCC(N4CCN(C)CC4)CC3)c(F)c2)nc1Nc1ccc2nccnc2c1NS(C)(=O)=O [II-46]	50 to 500 nM	50 to 500 nM	50 to 500 nM	50 to 500 nM	50 to 500 nM	≤ 50 nM
C=Cc1cnc(Nc2cc(CC)c(N3CCC(N4CCN(C)CC4)CC3)cc2OC(F)(F)F)nc1Nc1ccc2nccnc2c1P(C)(C)=O [Compound I-6]	≤ 50 nM	50 to 500 nM	≤ 50 nM	≤ 50 nM	≤ 50 nM	≤ 50 nM
C=Cc1cnc(Nc2cc(CC)c(N3CCC(N4CCN(C)CC4)CC3)nc2OC)nc1Nc1ccc2nccnc2c1S(=O)(=O)NC [IV-4]	500 to 2500 nM	500 to 2500 nM	50 to 500 nM	500 to 2500 nM	50 to 500 nM	50 to 500 nM
C=Cc1cnc(Nc2ccc(N3CCC(N4CCN(C)CC4)CC3)c(F)c2F)nc1Nc1ccc2nccnc2c1NS(C)(=O)=O [II-45]	50 to 500 nM	50 to 500 nM	500 to 2500 nM	500 to 2500 nM	50 to 500 nM	50 to 500 nM
C=C(C)c1cnc(Nc2cn[nH]c2)nc1Nc1ccc2nccnc2c1N(C)S(C)(=O)=O [II-70]	50 to 500 nM	50 to 500 nM	50 to 500 nM	≤ 50 nM	50 to 500 nM	≤ 50 nM

Continued, values first:

GI50 [1]	GI50 [2]	GI50 [3]	GI50 [4]	GI50 [5]	GI50 [6]	SMILES
50 to 500 nM	50 to 500 nM	50 to 500 nM	50 to 500 nM	50 to 500 nM	50 to 500 nM	C=Cc1cnc(Nc2cc(CC)c(N3CCC4(CC3)CC(N(C)C)C4)cc2OC)nc1Nc1ccc2nccnc2c1N(C)S(C)(=O)=O [II-55]
50 to 500 nM	50 to 500 nM	50 to 500 nM	500 to 2500 nM	500 to 2500 nM	50 to 500 nM	C=Cc1cnc(Nc2cc3c(cc2OC(F)(F)F)CCN(C)C3)nc1Nc1ccc2nccnc2c1N(C)S(C)(=O)=O [II-76]
≤ 50 nM	≤ 50 nM	50 to 500 nM	50 to 500 nM	≤ 50 nM	≤ 50 nM	C=C(C)c1cnc(Nc2cc(C3CC3)c(N3CCC(N4CCN(C)CC4)CC3)cc2OC)nc1Nc1ccc2nccnc2c1N(C)S(C)(=O)=O [II-23]
≤ 50 nM	≤ 50 nM	≤ 50 nM	≤ 50 nM	≤ 50 nM	≤ 50 nM	C=Cc1cnc(Nc2cc(CC)c(N3CCC(N(C)C)CC3)cc2OC)nc1Nc1ccc2nccnc2c1P(C)(C)=O [Compound I-2]
50 to 500 nM	50 to 500 nM	≤ 50 nM	50 to 500 nM	50 to 500 nM	500 to 2500 nM	C=Cc1cnc(Nc2cc(CC)c(N3CCC(N4CCN(C)CC4)CC3)cc2OC)nc1Nc1ccc2nccnc2c1NS(=O)(=O)C(C)C [II-44]
≤ 50 nM	≤ 50 nM	≤ 50 nM	≤ 50 nM	≤ 50 nM	50 to 500 nM	C=Cc1cnc(Nc2cc(CC)c(N3CCC(C4CN(C)C4)CC3)cc2OC)nc1Nc1ccc2nccnc2c1N(C)S(C)(=O)=O [II-54]
≤ 50 nM	≤ 50 nM	≤ 50 nM	50 to 500 nM	50 to 500 nM	≤ 50 nM	C=Cc1cnc(Nc2ccc3c(c2)C(C)CN(C)CC3)nc1Nc1ccc2nccnc2c1N(C)S(C)(=O)=O (stereo not drawn) [II-78]
500 to 2500 nM	50 to 500 nM	50 to 500 nM	50 to 500 nM	50 to 500 nM	500 to 2500 nM	C=Cc1cnc(Nc2ccc(N3CCC(N4CCN(C)CC4)CC3)cc2OC)nc1Nc1ccc2nccnc2c1N(C)S(C)(=O)=O [II-16]
≤ 50 nM	≤ 50 nM	≤ 50 nM	50 to 500 nM	≤ 50 nM	≤ 50 nM	C=Cc1cnc(Nc2ccc3c(c2)CN(C)CC3)nc1Nc1ccc2nccnc2c1N(C)S(C)(=O)=O [II-77]
≤ 50 nM	≤ 50 nM	≤ 50 nM	50 to 500 nM	≤ 50 nM	50 to 500 nM	C=Cc1cnc(Nc2cc(C)c(N3CCC(N4CCN(C)CC4)CC3)cc2OC)nc1Nc1ccc2nccnc2c1NS(C)(=O)=O [II-31]
50 to 500 nM	50 to 500 nM	≤ 50 nM	≤ 50 nM	50 to 500 nM	50 to 500 nM	C=Cc1cnc(Nc2cc(CC)c(N3CCC(N4CCN(C)CC4)CC3)cc2OC)nc1Nc1ccc2nccnc2c1N(C)S(C)(=O)=O [II-53]
50 to 500 nM	50 to 500 nM	50 to 500 nM	50 to 500 nM	500 to 2500 nM	500 to 2500 nM	C=Cc1cnc(Nc2ccn(CC)n2)nc1Nc1ccc2nccnc2c1N(C)S(C)(=O)=O [II-60]
50 to 500 nM	≤ 50 nM	500 to 2500 nM	500 to 2500 nM	500 to 2500 nM	500 to 2500 nM	CCc1cc(Nc2ncc(/C=C/C3CC3)c(Nc3ccc4nccnc4c3N(C)S(C)(=O)=O)n2)c(OC)cc1N1CCC(N2CCN(C)CC2)CC1 [II-28]
50 to 500 nM	50 to 500 nM	50 to 500 nM	50 to 500 nM	50 to 500 nM	50 to 500 nM	C=Cc1cnc(Nc2cn(CC)nc2C)nc1Nc1ccc2nccnc2c1N(C)S(C)(=O)=O [II-67]
500 to 2500 nM	50 to 500 nM	500 to 2500 nM	500 to 2500 nM	50 to 500 nM	50 to 500 nM	C=Cc1cnc(Nc2cc(CC3CC3)c(N3CCC(N4CCN(C)CC4)CC3)cc2OC)nc1Nc1ccc2nccnc2c1S(C)(=O)=O [III-13]
≤ 50 nM	50 to 500 nM	50 to 500 nM	50 to 500 nM	50 to 500 nM	50 to 500 nM	C=Cc1cnc(Nc2cc3c(cc2F)CCN(C)C3)nc1Nc1ccc2nccnc2c1N(C)S(C)(=O)=O [II-74]
